These results are taken from PMC11999743 (Journal of Analytical Methods in Chemistry, 2025).

This series is described as follows: Pharmacokinetic study in naive mice after intraperitoneal injection. As to conditions: 3 mg/kg; for V_F: uncorrected for bioavailability. On the procedure: Nine-week-old male Swiss mice (Janvier Labs, Le Genest-Saint-Isle, France), weighing 35–45 g at the time of experimentation, were used. […] Food and tap water were given ad libitum.
Their hind legs were depilated after a 1 min application of a commercial depilatory cream and rinsed with water. Subsequently, the mice were returned to their cages to allow for recovery and complete anesthesia washout. On the day of the experiment, an initial blood sample (20–30 μL) was collected by perforation of the saphenous vein from the mice.
For each treatment group, mice were subdivided into two cohorts, with blood samples collected at distinct time intervals after injection, totaling 14 time points for pharmacokinetic modeling. Compliance with regulatory directives prevented the collection of more than eight blood samples from individual animals. […] Blood samples were acquired using heparinized capillaries containing 2 μL of sodium heparin (Panpharma, France). After collection, the samples were transferred to Eppendorf tubes and centrifuged at 3000 g and 4°C for 10 min. The recovered plasma was then stored at −80°C until analysis. At the end of the experiments, the mice were euthanized by i.p. lethal injection (150 mg/kg) of sodium pentobarbital (Doléthal, Vétoquinol SA, France).
Pharmacokinetic analysis was carried out from the average concentration values at each time point using the Phoenix WinNonLin Version 8.4 software (Certara, Princeton NJ, USA). Pharmacokinetic parameters were determined from the plasma concentration-time data using a compartmental approach and include the total area under the plasma concentration-time curve (AUC0-∞), elimination half-life (t1/2elim), total clearance (CL/F), and volume of distribution (V). CL and V were uncorrected for the bioavailability (F).

Where [1] appears, read: male, Swiss, mouse, in vivo, ip.

Structures can show the parent of a compound that is named as a salt.

Where the note is “naive mice, i.p.”, `CN1[C@@H]2CC[C@H]1C[C@@H](OC(=O)C(CO)c1ccccc1)C2` (stereo partly shown) [Atropine, Atropine sulfate monohydrate] registered a V_F of 5.204 ± 0.43 L/kg.

In general, AUC refers to concentration integrated over time. As a reminder, the CL/F is clearance divided by bioavailability, as obtained after extravascular dosing. Usually Cmax stands for the highest concentration seen after dosing. What is called Tmax is the time at which the peak concentration occurs. Broadly, the half-life is the time in which the quantity being followed falls by half. A lower half-life goes with fast loss. In the case of `C[N+]1(C)[C@@H]2C[C@@H](OC(=O)C(O)(c3cccs3)c3cccs3)C[C@H]1[C@@H]1O[C@@H]12` [Tiotropium, Tiotropium bromide monohydrate], under setting [1], the AUC is 199 ng·h/mL, the CL/F stood at 201 ± 5 mL/min/kg and the highest level (Cmax) was 705 ± 22 ng/mL. The Tmax (male, Swiss, mouse, in vivo, ip, T max, naive mice, plasma) is 4.9 min. This molecule had a half-life (male, Swiss, mouse, in vivo, ip, t 1/2elim, naive mice, plasma) of approximately 7.5 min. Besides, for the setting “naive mice, i.p., plasma”, the T max is listed as 4.89 ± 0.24 min and the “t 1/2elim” value is reported as 7.43 ± 0.12 min. The same molecule returned a V_F (naive mice, i.p.) of 2.158 ± 0.075 L/kg. Also, where the note is “naive mice, i.p., LLOQ 0.5 ng/mL tiotropium, 1 ng/mL atropine”, the “Time after which plasma concentrations were below the LLOQ” value worked out at 60 min.
